Measurements: publication PMC4709569, “A Novel Naturally Occurring Class I 5-Enolpyruvylshikimate-3-Phosphate Synthase from Janibacter sp. Confers High Glyphosate Tolerance to Rice” (Scientific Reports, 2016)

Columns and labels:
C=C(OP(=O)(O)O)C(=O)O = assay: purified protein; details: PEP 0.05-1 mM, S3P fixed 1.0 mM, 50 mM Hepes pH 7.0, 28 °C
[1] = tested on: O=C(O)C1=C[C@@H](OP(=O)(O)O)[C@@H](O)[C@H](O)C1; assay: purified protein; details: S3P 0.05-1 mM, PEP fixed 1.0 mM, 50 mM Hepes pH 7.0, 28 °C
aroAE. coli [2] = target: T1, aroAE. coli (Escherichia coli, UniProt P0A6D3); assay: malachite green phosphate release, dose-response fit; format: biochemical
T1 construct: gene aroA; full length; pGEX-6p-1 BamHI/EcoRI, E. coli BL21(DE3); GST tag removed by 3C protease; similar size to aroAJ. sp (47 kDa on gel)
Source text: malachite green phosphate release, dose-response fit on aroAE. coli

aroAJ. sp [3] = target: T2, aroAJ. sp (Janibacter sp. YB324, UniProt Z9JWC7BZZ5); assay: malachite green phosphate release, Lineweaver-Burk; format: biochemical; details: competitive with respect to PEP; PEP 0.067-0.5 mM, S3P 1 mM; glyphosate 0-5 mM; 50 mM Hepes pH 7.0, 28 °C, KCl present
T2 construct: pGEX-6p-1 BamHI/EcoRI, E. coli BL21(DE3); GST tag removed by 3C protease; HTCC2649
Source text: malachite green phosphate release, Lineweaver-Burk on aroAJ. sp

aroAE. coli [4] = target: T1, aroAE. coli; assay: malachite green phosphate release, Lineweaver-Burk; format: biochemical; details: read-out: Ki ^c
Source text: malachite green phosphate release, Lineweaver-Burk on aroAE. coli

aroAJ. sp [5] = target: T2, aroAJ. sp; assay: malachite green phosphate release, dose-response fit; format: biochemical; details: 1 mM PEP, 1 mM S3P; glyphosate 0.0001-100 mM; 50 mM Hepes pH 7.0, 28 °C, KCl present
Source text: malachite green phosphate release, dose-response fit on aroAJ. sp

T1 sequence (P0A6D3 whole entry): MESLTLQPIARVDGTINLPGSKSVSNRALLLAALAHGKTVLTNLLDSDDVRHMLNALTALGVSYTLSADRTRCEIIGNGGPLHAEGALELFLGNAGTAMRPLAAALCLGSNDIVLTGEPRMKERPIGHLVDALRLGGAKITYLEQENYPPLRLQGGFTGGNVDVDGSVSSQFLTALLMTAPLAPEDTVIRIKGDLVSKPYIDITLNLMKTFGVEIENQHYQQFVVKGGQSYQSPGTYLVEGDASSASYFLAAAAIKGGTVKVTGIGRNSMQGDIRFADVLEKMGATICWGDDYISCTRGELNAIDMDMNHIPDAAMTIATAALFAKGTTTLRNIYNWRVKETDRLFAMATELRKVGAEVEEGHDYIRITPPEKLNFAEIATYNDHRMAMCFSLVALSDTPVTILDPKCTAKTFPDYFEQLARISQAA

| Compound | Km (C=C(OP(=O)(O)O)C(=O)O) | Km [1] | IC50 (aroAE. coli [2]) | Ki (aroAJ. sp [3]) | Ki (aroAE. coli [4]) | IC50 (aroAJ. sp [5]) |
| --- | --- | --- | --- | --- | --- | --- |
| aroAE. coli (Escherichia coli K-12) | 60 ± 7 µM | 115 ± 10 µM | – | – | – | – |
| O=C(O)CNCP(=O)(O)O [glyphosate] | – | – | 40 ± 10 µM | 373 ± 50 µM | 0.9 ± 0.09 µM | 3600 ± 200 µM |
